Data from patent publication US10421773B2, “Bone-selective osteogenic oxysterol bisphosphonate analogs” (The Regents of the University of California, priority 2014, dated 2019).

Columns and labels:
[1] = Half-life in human liver microsomes; type: in vitro ADME; conditions: HLM
spine fusion = conditions: compared to other analogues; cited from earlier work
bone disease models = conditions: rabbit spine fusion and rabbit calvarial defect models; cited from earlier work
[2] = test system: human primary mesenchymal stem cells; conditions: cited from earlier work
[3] = test system: M2-10B4 osteoprogenitor cells; experiment: Alkaline phosphatase (ALP) activity induction; type: cell-based; conditions: M2-10B4 cells; result mirrored the gene expression ranking
Experimental: (§1) Oxy133-ALN conjugates were tested in M2-10B4 osteoprogenitor cells to ascertain osteogenic activity and confirm their mechanism of action in inducing osteogenic differentiation. Alkaline phosphatase (ALP) activity, induction of the expression of osteogenic differentiation marker genes (ALP; bone sialoprotein (BSP); and osterix (OSX)), and ^45Ca incorporation as a measure of extracellular matrix mineralization were assayed by our previously reported protocols. The inventors have shown that these in vitro assays translate into in vivo stimulation of bone formation in a variety of animal models. The gene expression for ALP, BSP and OSX induced by the OXY133-ALN conjugates were measured after 6 and 14 days of treatment, the results after 6 days are shown in FIG. 1.
(§2) The succinate-linked series (Oxy166, Oxy167, Oxy174) and the carbamate series (Oxy175, Oxy176, and Oxy177) were assayed as groups. […] It may be that OXY133 must be released from the OXY133-ALN conjugates in order to induce osteogenic gene expression. […] A quantitative ^45Ca mineralization assay was performed with analogues and unconjugated OXY133 over a 30-day incubation period in M2 cells as shown in FIG. 2.

[4] = test system: M2-10B4 osteoprogenitor cells; experiment: Osteogenic gene expression (ALP, BSP, OSX) in M2-10B4 cells; type: cell-based; conditions: 6 and 14 days of treatment, compared with untreated control cells and unconjugated OXY133, ranking within each linker series
Experimental: as §1, §2

[5] = Hydroxyapatite (HAP) binding assay, NMR readout; conditions: in D2O, internal integration standard maleic acid, low HAP loading (FIG. 4C)
Experimental: The bone binding properties of bisphosphonates are due to their affinity for calcium in hydroxyapatite (HAP). Relative HAP binding capacity can be measured by incubating a solution of an analyte with HAP and measuring the proportion of compound remaining in the supernatant. […] Reliable quantification of a range of analytes can be obtained by using an inverse-gated decoupling pulse sequence and sufficiently long relaxation delays (d1).
The HAP binding assay was carried out under the following conditions: 1 mL of 4 mM analyte in 50 mM tris buffer at pH 7.5 is incubated with HAP (or no HAP for control) by inversion for 15 minutes. […] The procedure is illustrated in FIG. 3A.
The binding strengths of the OXY133-ALN conjugates of the present invention relative to ALN were determined and any differences in binding affinity contributed by the degree (mono- vs. bis-ALN linked conjugates), position (C3-OH vs. C6-OH), and nature (succinate vs. glycinate) of the Oxy133-ALN conjugates noted. ALN was used as a positive control and benzyl phosphonic acid (BnP) as an established negative control. 600 mg of HAP was used for the “large HAP loading” condition (FIG. 4A) and 150 mg of HAP was used for the “low HAP loading” condition (FIG. 4B).
Experimental conditions: 1 mL of 4 mM analyte in 50 mM tris buffer pH 7.5 is incubated with specified amount of HAP (or no HAP for control) by inversion for 15 min. […]

CCCCCC[C@](C)(O)[C@H]1CC[C@H]2[C@@H]3C[C@H](O)[C@H]4C[C@@H](O)CC[C@]4(C)[C@H]3CC[C@@]21C [OXY133]
half-life [1]: < 5 min
spine fusion in rats (spine fusion): induce spine fusion in rats in an accelerated manner
osteogenesis in non-rodent models of bone disease (bone disease models): induce robust osteogenesis
osteogenesis in cultured human primary mesenchymal stem cells [2]: induce osteogenesis

CCCCCC[C@](C)(O)[C@H]1CC[C@H]2[C@@H]3C[C@H](OC(=O)NCC(=O)NCCCC(O)(P(=O)(O)O)P(=O)(O)O)[C@H]4C[C@@H](O)CC[C@]4(C)[C@H]3CC[C@@]21C [Oxy175]
ALP activity induction [3]: most active
induction of osteogenic gene expression (ALP, BSP, OSX) [4]: most active

CCCCCC[C@](C)(O)[C@H]1CC[C@H]2[C@@H]3C[C@H](O)[C@H]4C[C@@H](OC(=O)NCC(=O)NCCCC(O)(P(=O)(O)O)P(=O)(O)O)CC[C@]4(C)[C@H]3CC[C@@]21C [Oxy177]
HAP binding affinity, 1H-NMR method [5]: binding affinity equivalent to the rest of the OXY-ALN series
